Laboratory results from article PMC7983969 (Virologica Sinica, 2021).
pEC50, pIC50: −log10 of the molar value.

How the values were obtained:
PEDV spike protein = assay: Indirect immuno-fluorescence assay; format: cell-based, porcine epidemic diarrhea virus, variant strain SDSX16; conditions: 0.2 μmol/L, 48 h, Vero E6 cells
[1] = test system: feline infectious peritonitis virus (FIPV); conditions: cats, subcutaneous, 5 mg/kg or 2 mg/kg; ref Murphy et al. [2018]; cited from earlier work
PEDV [2] = assay: Anti-PEDV activity assay, viral loads; format: cell-based; conditions: for concentration that completely inhibited PEDV replication: Vero E6 cells, PEDV 0.01 MOI, 48 h post infection, qRT-PCR and TCID50
PEDV [3] = assay: Anti-PEDV activity assay, PEDV-induced cytopathic effect; format: cell-based; conditions: Vero E6 cells, PEDV 0.01 MOI, until virus control showed complete CPE
[4] = Pharmacokinetics study of RDV-N in ICR mice; format: in vivo
[5] = Water solubility and lipophilicity; format: physicochemical
Vero E6 cells = assay: Cytotoxicity assay; format: cell-based, African green monkey; conditions: 72 h, CCK-8 assay
[6] = test system: human cell lines and primary cells; conditions: cited from earlier work
PDCoV = conditions: ref Brown et al. [2019]; cited from earlier work
PEDV 3CL^pro = conditions: PEDV 3CLpro; ref Ye et al. [2020]; cited from earlier work

## N#C[C@@]1(c2ccc3c(N)ncnn23)O[C@H](CO)[C@@H](O)[C@H]1O [RDV-N]
PEDV spike protein
  fluorescence intensity (viral protein expression): significantly decreased
[1]
  cure rate: 100%
PEDV [2]; 72 h post infection, qRT-PCR
  fold more potent than NHC (EC50): 3
PEDV [2]
  concentration that completely inhibited PEDV replication: 2.0 µmol/L
PEDV [3]
  concentration at which PEDV-induced CPE was obviously blocked: 0.2 µmol/L
[4]; male, ICR, mouse, plasma, iv, 25 mg/kg
  half-life: 1.02 h
[4]; male, ICR, mouse, plasma, po, 50 mg/kg
  half-life: 1.2 h
[4]; male, ICR, mouse, plasma, po, 50 mg/kg, Tmax, mice
  Tmax: ≤ 1 h
[4]; mice, IV, 25 mg/kg
  AUClast: 14,513 h × ng/mL
[4]; mice, PO, 50 mg/kg
  AUClast: 4556 ng·h/mL
  Cmax: 1826 ng/mL
[5]
  lipophilicity: low lipophilicity
  water solubility: poor water solubility
Vero E6 cells
  maximal non-toxic concentration (MNTC): 125 µmol/L

## CCC(CC)COC(=O)[C@H](C)N[P@](=O)(OC[C@H]1O[C@@](C#N)(c2ccc3c(N)ncnn23)[C@H](O)[C@@H]1O)Oc1ccccc1 [RDV, remdesivir]
[6]
  CC50: 1.7 to 15 µM
PEDV [2]
  concentration that completely inhibited PEDV replication: 7.8 µmol/L
PDCoV
  pEC50: 7.70
PEDV [3]
  concentration at which PEDV-induced CPE was obviously blocked: 0.5 µmol/L
Vero E6 cells
  maximal non-toxic concentration (MNTC): 125 µmol/L

## GC376
PEDV 3CL^pro
  pIC50: 5.95
